{"source": "patent US20250262186A1", "about": "(SANOFI, priority 2022, published 2025)", "target": "T1, ERα (Homo sapiens, UniProt P03372)", "T1 construct": "made using a breast cancer cell ERα in cell western assay; host or cells: MCF7", "T1 sequence (P03372 1-595)": "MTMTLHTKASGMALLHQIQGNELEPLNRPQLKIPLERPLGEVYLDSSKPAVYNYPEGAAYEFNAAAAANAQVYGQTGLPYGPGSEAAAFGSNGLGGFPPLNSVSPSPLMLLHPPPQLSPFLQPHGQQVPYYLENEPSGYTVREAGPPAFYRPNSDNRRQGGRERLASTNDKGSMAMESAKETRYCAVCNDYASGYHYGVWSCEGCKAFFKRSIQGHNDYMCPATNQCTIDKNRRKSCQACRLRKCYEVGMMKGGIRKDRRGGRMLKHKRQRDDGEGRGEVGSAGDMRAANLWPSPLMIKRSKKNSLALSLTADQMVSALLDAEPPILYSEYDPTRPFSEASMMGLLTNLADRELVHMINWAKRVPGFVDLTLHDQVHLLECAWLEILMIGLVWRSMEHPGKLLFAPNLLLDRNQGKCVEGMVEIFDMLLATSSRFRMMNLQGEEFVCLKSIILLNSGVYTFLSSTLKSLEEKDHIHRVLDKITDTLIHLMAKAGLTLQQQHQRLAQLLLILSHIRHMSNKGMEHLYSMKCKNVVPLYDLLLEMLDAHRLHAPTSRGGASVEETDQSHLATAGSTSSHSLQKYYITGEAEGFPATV", "assay": "Estrogen receptor degradation activity: breast cancer cell ERα in cell western assay in MCF7 cells", "format": "cell-based", "details": "for % Degradation At 0.3 μM: 4 hours, relative to fulvestrant 0.1 μM positive control", "method": "Said test involves measuring the in vitro degradation activity of the compounds of the Table 1a.\nThe measurements of the degradation activities were made using a breast cancer cell ERα in cell western assay as described hereunder.\nMCF7 cells (ATCC) were seeded in 384 wells microplate (collagen coated) at a concentration of 10000 cells/30 μL per well in red phenol free MEM alpha medium (invitrogen) containing 5% charcoal dextran striped FBS. The following day, 9 points serial 1:5 dilution of each compound was added to the cells in 2.5 μL at final concentrations ranging from 0.3-0.0000018 μM (in table 2), or 0.1 μM for fulvestrant (using as positive control). At 4 hours post compound addition the cells were fixed by adding 25 μL of formalin (final concentration 5% formalin containing 0.1% triton) for 10 minutes at room temperature and then washed twice with PBS. Then, 50 μL of LI-COR blocking buffer containing 0.1% Triton was added to plate for 30 minutes at room temperature. LI-COR blocking buffer was removed and cells were incubated overnight at cold room with 50 μL anti-ER rabbit monoclonal antibody (Thermo scientific MA1-39540) diluted at 1:1000 in LI-COR blocking buffer containing 0.1% tween-20. Wells which were treated with blocking buffer but no antibody were used as background control. Wells were washed twice with PBS (0.1% tween-20) and incubated at 37° C. for 60 minutes in LI-COR (0.1% tween-20) containing goat anti-rabbit antibody Alexa 488 (1:1000) and Syto-64 a DNA dye (2 μM final concentration). Cells were then washed 3 times in PBS and scanned in ACUMEN explorer (TTP-Labtech). Integrated intensities in the green fluorescence and red fluorescence were measured to determine the levels of ERα and DNA respectively.\nThe degradation activity with respect to estrogen receptors in this test is given by the concentration which degrades 50% of the estrogen receptor (or IC50) in nM.\nThe % of ERα levels decrease were determined as follows: % inhibition=100*(1−(sample−fulvestrant: DMSO−fulvestrant)).", "data": [{"smiles": "FCCCN1CC[C@@H](Oc2cccc(C3=C(c4ccccc4Cl)CCCc4ccccc43)c2)C1", "note": "[Compound 39, (R)-3-(3-(8-(2-chlorophenyl)-6,7-dihydro-5H-benzo[7]annulen-9-yl)phenoxy)-1-(3-fluoropropyl)pyrrolidine]", "values": [{"measurement": "% Degradation At 0.3 μM", "result": 78, "unit": "%"}]}, {"smiles": "CC1(C)CCC(C2=C(c3cccc(O[C@@H]4CCN(CCCF)C4)c3)c3ccc(C(=O)O)cc3CCC2)CC1.Cl", "note": "[Compound 13, (R)-8-(4,4-dimethylcyclohexyl)-9-(3-((1-(3-fluoropropyl)pyrrolidin-3-yl)oxy)phenyl)-6,7-dihydro-5H-benzo[7]annulene-3-carboxylic acid, hydrochloride]", "values": [{"measurement": "% Degradation At 0.3 μM", "result": 57, "unit": "%"}]}, {"smiles": "CC1CCc2cc(C(=O)O)ccc2C(c2cccc(OC3CCN(CCCF)C3)c2)=C1c1cccc(Cl)c1", "note": "(single isomer, unassigned; isomer 2) [Compound 37]", "values": [{"measurement": "% Degradation At 0.3 μM", "result": 67, "unit": "%"}]}, {"smiles": "Cc1c(O[C@@H]2CCN(CCCF)C2)cccc1C1=C(c2ccc(Cl)cc2Cl)CCCc2cc(C(=O)O)ccc21", "note": "[Compound 17, (R)-8-(2,4-dichlorophenyl)-9-(3-((1-(3-fluoropropyl)pyrrolidin-3-yl)oxy)-2-methylphenyl)-6,7-dihydro-5H-benzo[7]annulene-3-carboxylic acid]", "values": [{"measurement": "% Degradation At 0.3 μM", "result": 87, "unit": "%"}]}, {"smiles": "Cc1ccc(O[C@@H]2CCN(CCCF)C2)cc1C1=C(c2ccccc2Cl)CCCc2cc(C(=O)O)ccc21", "note": "[Compound 23, (R)-8-(2-chlorophenyl)-9-(5-((1-(3-fluoropropyl)pyrrolidin-3-yl)oxy)-2-methylphenyl)-6,7-dihydro-5H-benzo[7]annulene-3-carboxylic acid]", "values": [{"measurement": "% Degradation At 0.3 μM", "result": 84, "unit": "%"}]}, {"smiles": "Cl.O=C(O)c1ccc2c(c1)CCCC(c1ccc(Cl)cc1Cl)=C2c1cccc(O[C@@H]2CCN(CCCF)C2)c1F", "note": "[Compound 21, (R)-8-(2,4-dichlorophenyl)-9-(2-fluoro-3-((1-(3-fluoropropyl)pyrrolidin-3-yl)oxy)phenyl)-6,7-dihydro-5H-benzo[7]annulene-3-carboxylic acid, hydrochloride]", "values": [{"measurement": "% Degradation At 0.3 μM", "result": 85, "unit": "%"}]}, {"smiles": "Cl.O=C(O)c1ccc2c(c1)CCCC(c1ccc(Cl)cc1Cl)=C2c1cccc(N[C@@H]2CCN(CCCF)C2)c1", "note": "[Compound 33, (R)-8-(2,4-dichlorophenyl)-9-(3-((1-(3-fluoropropyl)pyrrolidin-3-yl)amino)phenyl)-6,7-dihydro-5H-benzo[7]annulene-3-carboxylic acid hydrochloride]", "values": [{"measurement": "% Degradation At 0.3 μM", "result": 79, "unit": "%"}]}, {"smiles": "Cl.O=C(O)c1ccc2c(c1)CCCC(c1ccc(Cl)cc1Cl)=C2c1cccc(OC2CN(CCCF)C2)c1", "note": "[Compound 30, 8-(2,4-dichlorophenyl)-9-(3-((1-(3-fluoropropyl)azetidin-3-yl)oxy)phenyl)-6,7-dihydro-5H-benzo[7]annulene-3-carboxylic acid hydrochloride]", "values": [{"measurement": "% Degradation At 0.3 μM", "result": 55, "unit": "%"}]}, {"smiles": "Cl.O=C(O)c1ccc2c(c1)CCCC(c1ccccc1Cl)=C2c1cccc(O[C@@H]2CCN(CCCF)C2)c1F", "note": "[Compound 20, (R)-8-(2-chlorophenyl)-9-(2-fluoro-3-((1-(3-fluoropropyl)pyrrolidin-3-yl)oxy)phenyl)-6,7-dihydro-5H-benzo[7]annulene-3-carboxylic acid, hydrochloride]", "values": [{"measurement": "% Degradation At 0.3 μM", "result": 88, "unit": "%"}]}, {"smiles": "FCCCN1CC[C@@H](Oc2cccc(C3=C(c4ccc(Cl)cc4Cl)CCCc4ccccc43)c2)C1", "note": "[Compound 38, (R)-3-(3-(8-(2,4-dichlorophenyl)-6,7-dihydro-5H-benzo[7]annulen-9-yl)phenoxy)-1-(3-fluoropropyl)pyrrolidine]", "values": [{"measurement": "% Degradation At 0.3 μM", "result": 66, "unit": "%"}]}, {"smiles": "Cc1ccc(O[C@@H]2CCN(CCCF)C2)cc1C1=C(c2ccc(Cl)cc2Cl)CCCc2cc(C(=O)O)ccc21", "note": "[Compound 24]", "values": [{"measurement": "% Degradation At 0.3 μM", "result": 61, "unit": "%"}]}, {"smiles": "Cl.O=C(O)c1ccc2c(c1)CCCC(c1ccccc1)=C2c1cccc(O[C@@H]2CCN(CCCF)C2)c1F", "note": "[Compound 19, (R)-9-(2-fluoro-3-((1-(3-fluoropropyl)pyrrolidin-3-yl)oxy)phenyl)-8-phenyl-6,7-dihydro-5H-benzo[7]annulene-3-carboxylic acid, hydrochloride]", "values": [{"measurement": "% Degradation At 0.3 μM", "result": 82, "unit": "%"}]}, {"smiles": "Cc1c(O[C@@H]2CCN(CCCF)C2)cccc1C1=C(c2ccccc2)CCCc2cc(C(=O)O)ccc21", "note": "[Compound 15, (R)-9-(3-((1-(3-fluoropropyl)pyrrolidin-3-yl)oxy)-2-methylphenyl)-8-phenyl-6,7-dihydro-5H-benzo[7]annulene-3-carboxylic acid]", "values": [{"measurement": "% Degradation At 0.3 μM", "result": 80, "unit": "%"}]}, {"smiles": "Cl.O=C(O)c1ccc2c(c1)OCCC(c1ccc(Cl)cc1Cl)=C2c1cccc(O[C@@H]2CCN(CCCF)C2)c1", "note": "[Compound 35, (R)-4-(2,4-dichlorophenyl)-5-(3-((1-(3-fluoropropyl)pyrrolidin-3-yl)oxy)phenyl)-2,3-dihydrobenzo[b]oxepine-8-carboxylic acid hydrochloride]", "values": [{"measurement": "% Degradation At 0.3 μM", "result": 65, "unit": "%"}]}, {"smiles": "Cl.O=C(O)c1ccc2c(c1)CCCC(c1ccccc1Cl)=C2c1cccc(OC2CN(CCCF)C2)c1", "note": "[Compound 29, 8-(2-chlorophenyl)-9-(3-((1-(3-fluoropropyl)azetidin-3-yl)oxy)phenyl)-6,7-dihydro-5H-benzo[7]annulene-3-carboxylic acid hydrochloride]", "values": [{"measurement": "% Degradation At 0.3 μM", "result": 57, "unit": "%"}]}, {"smiles": "O=C(O)c1ccc2c(c1)CCCC(c1cccc(F)c1Cl)=C2c1cccc(O[C@@H]2CCN(CCCF)C2)c1", "note": "[Compound 9, (R)-8-(2-chloro-3-fluorophenyl)-9-(3-((1-(3-fluoropropyl)pyrrolidin-3-yl)oxy)phenyl)-6,7-dihydro-5H-benzo[7]annulene-3-carboxylic acid]", "values": [{"measurement": "% Degradation At 0.3 μM", "result": 90, "unit": "%"}]}, {"smiles": "O=C(O)c1ccc2c(c1)CCCC(c1ccccc1)=C2c1cccc(O[C@H]2CCN(CCCF)C2)c1", "note": "[Compound 2a, (S)-9-(3-((1-(3-fluoropropyl)pyrrolidin-3-yl)oxy)phenyl)-8-phenyl-6,7-dihydro-5H-benzo[7]annulene-3-carboxylic acid]", "values": [{"measurement": "% Degradation At 0.3 μM", "result": "Inactive"}, {"measurement": "degradation activity for estrogen receptors (in words)", "setting": "text statement on comparative compounds", "result": "inactive"}]}]}
